Reference: US20250011288A1 (BRISTOL-MYERS SQUIBB COMPANY, priority 2021, published 2025)

biological target: T1, human RXFP1 (Homo sapiens, UniProt Q9HBX9); assay: human RXFP1 (hRXFP1) HEK293 cAMP assay (HTRF); format: cell-based; settings: HEK293 cells stably expressing human RXFP1, 30 min at room temperature
T1 construct: expressed in transfected cells
T1 sequence (Q9HBX9 1-757): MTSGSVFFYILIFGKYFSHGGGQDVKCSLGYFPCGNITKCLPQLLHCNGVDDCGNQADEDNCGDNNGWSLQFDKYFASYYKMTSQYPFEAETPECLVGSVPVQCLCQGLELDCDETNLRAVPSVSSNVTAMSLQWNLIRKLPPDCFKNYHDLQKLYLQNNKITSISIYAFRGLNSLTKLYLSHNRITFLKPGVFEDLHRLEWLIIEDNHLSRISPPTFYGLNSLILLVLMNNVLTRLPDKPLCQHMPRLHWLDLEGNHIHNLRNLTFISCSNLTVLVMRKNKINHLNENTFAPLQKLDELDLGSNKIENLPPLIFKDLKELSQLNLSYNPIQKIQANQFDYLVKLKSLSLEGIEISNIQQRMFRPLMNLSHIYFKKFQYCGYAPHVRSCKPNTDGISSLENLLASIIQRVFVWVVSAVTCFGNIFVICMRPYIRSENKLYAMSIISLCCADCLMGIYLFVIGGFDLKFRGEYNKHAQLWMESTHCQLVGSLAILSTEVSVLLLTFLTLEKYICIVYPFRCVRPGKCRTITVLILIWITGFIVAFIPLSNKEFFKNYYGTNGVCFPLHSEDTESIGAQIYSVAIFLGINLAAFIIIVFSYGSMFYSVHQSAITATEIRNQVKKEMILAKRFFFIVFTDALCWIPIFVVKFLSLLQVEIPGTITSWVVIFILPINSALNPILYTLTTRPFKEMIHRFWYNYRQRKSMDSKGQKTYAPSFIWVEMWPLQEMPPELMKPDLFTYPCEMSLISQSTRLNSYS
Procedure, shortened: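 HEK293 cells stably expressing human RXFP1 (1500 cells/well) in HBSS/20 mM HEPES/0.05% BSA/0.5 mM IBMX, treated with compound (0.010 nM–50 µM final, 2% DMSO) for 30 min at room temperature. Intracellular cAMP read by HTRF; potency from 4-parameter logistic fit of cAMP versus concentration.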

| EC50 | Structure (SMILES) |
| --- | --- |
| 1.2 nM | COc1ncc(C2=NOC3CC(CO)CC23)cc1C(=O)N[C@H]1[C@@H](C(=O)N[C@H](C)C2(C)CC2)[C@H]2CC[C@@H]1/C2=C\C1CC1 (stereo partly drawn) [Example 105, N-((1R,2R,3S,4R,Z)-7-(cyclopropyl-methylene)-3-(((R)-1-(1-methylcyclopropyl)ethyl)carbamoyl)bicyclo[2.2.1]heptan-2-yl)-5-(5-(hydroxymethyl)-3a,5,6,6a-tetrahydro-4H-cyclopenta[d]isoxazol-3-yl)-2-methoxynicotinamide] |
| 2100 nM | Cn1cc(Br)cc(C(=O)N[C@@H]2C3CCC(/C3=C/C3CC3)[C@@H]2C(=O)Nc2ccc(F)c(C(F)(F)F)c2)c1=O (stereo partly drawn) [Example 18, 5-bromo-N-[(2R,3S,7Z)-7-(cyclopropyl-methylidene)-3-{[4-fluoro-3-(trifluoromethyl)phenyl]carbamoyl}bicyclo [2.2.1]heptan-2-yl]-1-methyl-2-oxo-1,2-dihydropyridino-3-carboxamide] |
| 1200 nM | COc1nn(-c2cccc(C(=O)O)c2)cc1C(=O)N[C@@H]1C2CCC(/C2=C/c2ccccc2)[C@@H]1C(=O)Nc1ccc(F)c(C(F)(F)F)c1 (stereo partly drawn) [Example 54, 3-(4-{[(2R,3S,7Z)-3-{[4-fluoro-3-(trifluoromethyl)phenyl]carbamoyl}-7-(phenylmethylidene)bicyclo [2.2.1]heptan-2-yl]carbamoyl}-3-methoxy-1H-pyrazol-1-yl)benzoic acid] |
| 1600 nM | COc1nn(-c2cccc(C(=O)O)c2)cc1C(=O)N[C@@H]1C2CCC(/C2=C/C(F)(F)F)[C@@H]1C(=O)Nc1ccc(F)c(C(F)(F)F)c1 (stereo partly drawn) [Example 53, 3-(4-{[(2R,3S,7Z)-3-{[4-fluoro-3-(trifluoromethyl)phenyl]carbamoyl}-7-(2,2,2-trifluoroethylidene)bicyclo[2.2.1]heptan-2-yl]carbamoyl}-3-methoxy-1H-pyrazol-1-yl)benzoic acid] |
| 940 nM | COc1ncc(Cl)cc1C(=O)N[C@@H]1C2CCC(/C2=C/C(F)(F)F)[C@@H]1C(=O)Nc1ccc(F)c(C(F)(F)F)c1 (stereo partly drawn) [Example 11, 5-chloro-N-[(2R,3S,7Z)-3-{[4-fluoro-3-(trifluoromethyl)phenyl]carbamoyl}-7-(2,2,2-trifluoroethylidcne)bicyclo[2. 2.1]heptan-2-yl]-2-methoxypyridine-3-carboxamide] |
| 9 nM | CC1Cc2cc(C3=NOC4CC(CO)CC34)cc(C(=O)N[C@@H]3C4CCC(/C4=C/C4CC4)[C@@H]3C(=O)N[C@H](C)C3(C)CC3)c2O1 (stereo partly drawn) [Example 152] |
| 5.6 nM | COc1ncc(C2=NOC(C)(CO)C2)cc1C(=O)N[C@H]1[C@@H](C(=O)Nc2ccc(F)c(C(F)(F)F)c2)[C@H]2CC[C@@H]1/C2=C\C1CC1 (stereo partly drawn) [Example 157, N-[(1R,2R,3S,4R, 7Z)-7-(cyclopropyl-methylidene)-3-{[4-fluoro-3-(trifluoromethyl)phenyl]carbamoyl}bicyclo[2.2.1]heptan-2-yl]-5-[5-(hydroxymethyl)-5-methyl-4,5-dihydro-1,2-oxazol-3-yl]-2-methoxypyridine-3-carboxamide] |
| 28 nM | COc1cnc(C2=NOC3COCC23)cc1C(=O)N[C@H]1[C@@H](C(=O)Nc2ccc(F)c(C(F)(F)F)c2)[C@H]2CC[C@@H]1/C2=C\C1CC1 (single isomer, unassigned) [Example 71] |
| 3.6 nM | COc1ncc(C2=NOC3CC(C(C)O)CC23)cc1C(=O)N[C@H]1[C@@H](C(=O)Nc2ccc(F)c(C(F)(F)F)c2)[C@H]2CC[C@@H]1/C2=C\CCC(F)(F)F (stereo partly drawn) [Example 124, N-((1R,2R,3S,4R,Z)-3-((4-fluoro-3-(trifluoromethyl)phenyl)carbamoyl)-7-(4,4,4-trifluorobutylidene)bicyclo[2.2.1]heptan-2-yl)-5-(5-(1-hydroxyethyl)-3a,5,6,6a-tetrahydro-4H-cyclopenta[d]isoxazol-3-yl)-2-methoxynicotinamide] |
| 4.8 nM | COc1ncc(-c2cc([C@H](OC(=O)N3CC4(COC4)C3)C(F)(F)F)ccc2F)cc1C(=O)N[C@@H]1C2CCC(/C2=C/C2CC2)[C@@H]1C(=O)Nc1ccc(F)c(C(F)(F)F)c1 (stereo partly drawn) [Example 184, (1S)-1-[3-(5-{[(2R,3S,7Z)-7-(cyclopropyl-methylidene)-3-{[4-fluoro-3-(trifluoromethyl)phenyl]carbamoyl}bicyclo[2.2.1]heptan-2-yl]carbamoyl}-6-methoxypyridin-3-yl)-4-fluorophenyl]-2,2,2-trifluoroethyl 2-oxa-6-azaspiro[3.3] heptane-6-carboxylate] |
| 1400 nM | COc1cscc1C(=O)N[C@@H]1C2CCC(C2=C(C)C)[C@@H]1C(=O)Nc1ccc(F)c(C(F)(F)F)c1 (stereo partly drawn) [Example 9, N-[(2R,3S)-3-{[4-fluoro-3-(trifluoromethyl)phenyl]carbamoyl}-7-(propan-2-ylidene)bicyclo [2.2.1]heptan-2-yl]-4-methoxy-thiophene-3-carboxamide] |
| 1.8 nM | COc1ncc(C2=NO[C@@H]3C[C@H](CO)CN23)cc1C(=O)N[C@@H]1C2CCC(/C2=C/C2CC2)[C@@H]1C(=O)Nc1ccc(F)c(C(F)(F)F)c1 (stereo partly drawn) [Example 132, N-((1R,2R,3S,4R,Z)-7-(cyclopropyl-methylene)-3-((4-fluoro-3-(trifluoromethyl)phenyl)carbamoyl)bicyclo[2.2.1]heptan-2-yl)-5-((6S,7aR)-6-(hydroxymethyl)-5,6,7,7a-tetrahydropyrrolo [1,2-d][1,2,4]oxadiazo 1-3-yl)-2-methoxynicotinamide] |
| 2900 nM | COc1cccc2cc(C(=O)N[C@@H]3C4CCC(/C4=C/C(F)(F)F)[C@@H]3C(=O)Nc3ccc(F)c(C(F)(F)F)c3)cnc12 (stereo partly drawn) [Example 14, N-[(2R,3S,7Z)-3-{[4-fluoro-3-(trifluoromethyl)phenyl]carbamoyl}-7-(2,2,2-trifluoroethylidene)bicyclo[2.2.1]heptan-2-yl]-8-methoxyquinoline-3-carboxamide] |
| 3 nM | CC1(C)Cc2cc(C3=NOC4COCC34)cc(C(=O)N[C@@H]3C4CCC(/C4=C/C4CC4)[C@@H]3C(=O)Nc3ccc(F)c(C(F)(F)F)c3)c2O1 (stereo partly drawn) [Example 145, 5-{3aH,4H,6H,6aH-furo[3,4-d][1,2]oxazol-3-yl}-N-[(1R,2R,3S, 4R,7Z,)-7-(cyclopropyl-methylidene)-3-{[4-fluoro-3-(trifluoromethyl)phenyl]carbamoyl}bicyclo[2.2.1]heptan-2-yl]-2,2-dimethyl-2,3-dihydro-1-benzofuran-7-carboxamide] |
| 5.3 nM | COc1ncc(-c2cc([C@H](OC(=O)N3CCS(=O)(=O)CC3)C(F)(F)F)ccc2F)cc1C(=O)N[C@@H]1C2CCC(/C2=C/C2CC2)[C@@H]1C(=O)Nc1ccc(F)c(C(F)(F)F)c1 (stereo partly drawn) [Example 187, (1S)-1-[3-(5-{[(2R,3S,7Z)-7-(cyclopropyl-methylidene)-3-{[4-fluoro-3-(trifluoromethyl)phenyl]carbamoyl}bicyclo[2.2.1]heptan-2-yl]carbamoyl}-6-methoxypyridin-3-yl)-4-fluorophenyl]-2,2,2-trifluoroethyl 1,1-dioxo-1λ^6-thiomorpholine-4-carboxylate] |
| 24 nM | COc1ncc(COC2(CO)CC2)cc1C(=O)N[C@H]1[C@@H](C(=O)Nc2ccc(F)c(C(F)(F)F)c2)[C@H]2CC[C@@H]1/C2=C\C1CC1 [Example 73, N-[(1R,2R,3S, 4R,7Z)-7-(cyclopropyl-methylidene)-3-{[4-fluoro-3-(trifluoromethyl)phenyl]carbamoyl}bicyclo[2.2.1]heptan-2-yl]-5-{[1-(hydroxymethyl)cyclopropoxy]methyl}-2-methoxypyridine-3-carboxamide] |
| 1.6 nM | COc1ncc(C2=NOC3CC(CO)CC23)cc1C(=O)N[C@H]1[C@@H](C(=O)Nc2ccc(F)c(C(F)(F)F)c2)[C@H]2CC[C@@H]1/C2=C\C1CCCC1 (stereo partly drawn) [Example 101, N-((1R,2R,3S,4R,Z)-7-(cyclopentyl-methylene)-3-((4-fluoro-3-(trifluoromethyl)phenyl)carbamoyl)bicyclo[2.2.1]heptan-2-yl)-5-(5-(hydroxymethyl)-3a,5,6,6a-tetrahydro-4H-cyclopenta[d]isoxazol-3-yl)-2-methoxynicotinamide] |
| 2.7 nM | COc1ncc(C2=NOC3CC(CO)CC23)cc1C(=O)N[C@H]1[C@@H](C(=O)N[C@H](C)C2(C)CC2(F)F)[C@H]2CC[C@@H]1/C2=C\C(F)(F)F (stereo partly drawn) [Example 116, N-((1R,2R,3S,4R,Z)-3-(((1R)-1-(2,2-difluoro-1-methylcyclopropyl)ethyl)carbamoyl)-7-(2,2,2-trifluoroethylidene)bicyclo[2.2.1]heptan-2-yl)-5-(5-(hydroxymethyl)-3a,5,6,6a-tetrahydro-4H-cyclopenta[d]isoxazol-3-yl)-2-methoxynicotinamide] |
